Measured values taken from patent US8309612B2, “Method for treating age-related macular degeneration” (Santen Pharmaceutical Co., Ltd., priority 2007, dated 2012).

Key:
[1] = test system: choroidal neovascularization; experiment: Rat model of krypton laser-induced choroidal neovascularization; format: in vivo; settings: for Inhibition rate (%): BID, oral, 12 days, choroidal neovascularization incidence on day 7 after photocoagulation vs vehicle
Method: The usefulness of Ebselen was evaluated using a rat model of laser-induced choroidal neovascularization.
A rat was given general anesthesia by intramuscular administration of 1 ml/kg of a mixed solution of a 5% (w/v) ketamine hydrochloride injection solution and a 2% xylazine hydrochloride injection solution (7:1), and a 0.5% (w/v) tropicamide-0.5% phenylephrine hydrochloride ophthalmic solution was instilled into the eyes to cause mydriasis, and then, photocoagulation was performed with a krypton laser photocoagulation apparatus. The photocoagulation was performed in a posterior fundus at eight spots per eye sparsely by focusing on the retinal deep layer avoiding thick retinal blood vessels (coagulation conditions: spot size: 100 μm, output: 100 mW, coagulation time: 0.1 sec). After the photocoagulation, the ocular fundus was photographed, and the site where the laser was irradiated was confirmed. […]
On day 7 after photocoagulation, each rat was given general anesthesia by intramuscular administration of 1 ml/kg of a mixed solution of a 5% (w/v) ketamine hydrochloride injection solution and a 2% xylazine hydrochloride injection solution (7:1), and a 0.5% (w/v) tropicamide-0.5% phenylephrine hydrochloride ophthalmic solution was instilled into the eyes to cause mydriasis, and then, 0.1 ml of a 10% fluorescein solution was injected into the tail vein, and fluorescence fundus photography was performed. In the fluorescence fundus photography, a spot where fluorescence leakage was not observed (absence of neovascularization) was judged as negative, and a spot where fluorescence leakage was observed was judged as positive. When there are two photocoagulation sites where a little fluorescence leakage was observed, they were judged as positive (presence of neovascularization). The choroidal neovascularization incidence rate (%) was calculated from the number of positive spots relative to the eight laser irradiation spots in accordance with Equation 1, and the inhibition rate (%) of the drug to be evaluated was calculated in accordance with Equation 2. […]

[2] = test system: ARPE-19 cells (a human retinal pigment epithelial cell line); experiment: Protective effect on hydrogen peroxide-induced cell damage in ARPE-19 cells; format: cell-based; settings: for Cell protective effect on hydrogen peroxide-induced cell damage (in words): 6.25 μM or 12.5 μM, hydrogen peroxide 250 μM
Method: Oxidative stress causes retinal pigment epithelial dysfunction and is considered to be one of the causes of development or progression of AMD (Proc. Natl. Acad. Sci. USA, 2006; 103: 11282-11287). Therefore, by using ARPE-19 cells (a human retinal pigment epithelial cell line), the protective effect of Ebselen on hydrogen peroxide-induced cell damage was evaluated. In addition, the effects of quercetin and edaravone which are compounds generally known to have an antioxidative activity were also evaluated at the same time, and comparison study was performed.
(§1) ARPE-19 cells were seeded in a 96-well plate at 5×10^3 cells/well and cultured for 24 hours under the conditions of 37° C. in a 5% CO2/95% air atmosphere. As a culture medium for ARPE-19, DMEM/F12 containing 10% fetal bovine serum, 2 mM L-glutamine and 100 U/mL penicillin and 100 μg/mL streptomycin was used. Subsequently, the culture medium was removed and exchanged with a culture medium containing Ebselen, quercetin or edaravone, or a vehicle culture medium. Incidentally, each compound was dissolved in DMSO and diluted to 1000-fold with the culture medium to prepare a culture medium containing each compound at 6.25 μM or 12.5 μM. The vehicle culture medium was prepared by diluting DMSO without containing the compound to 1000-fold with the culture medium. After the cells were cultured for 24 hours under the conditions of 37° C. in a 5% CO2/95% air atmosphere, the culture medium was removed and exchanged with a culture medium containing hydrogen peroxide (250 μM). After the cells were further cultured for 24 hours under the above-mentioned conditions, the cell viability was measured. In the measurement, Cell Counting Kit-8 (Dojin Kagaku) was used.
(§2) The mean±the standard error (%) of the cell viability of each compound-treated group was expressed by taking the mean value of the cell viability of the untreated cells as 100%. The case number in each group is 4.

ARPE-19 cells = experiment: Protective effect on HNE-induced cell damage in ARPE-19 cells; format: cell-based, human; settings: for Cell protective effect on HNE-induced cell damage (in words): 12.5 μM, HNE 100 μM
From the text: It is known that reactive oxygen species promote membrane lipid peroxidation, resulting in production of HNE (Exp. Eye. Res., 2006; 83: 165-175). HNE forms a covalent bond with a cysteine, lysine or histidine side chain of a protein and inhibits the normal function of the protein, and therefore has a high cytotoxic activity (Invest. Opthalmol. Vis. Sci. 2007; 48: 3469-3479). It is reported that an HNE-modified protein is present also in drusen beneath the retina which is considered to be a deposit inducing AMD, and it is considered to cause retinal pigment epithelial cell damage and also considered to be one of the causes of development or progression of a disease attributed to retinal pigment epithelial damage (Mol. Vis., 2005; 11: 1122-1134, Invest. Opthalmol. Vis. Sci., 2003; 44: 3663-3668, FEBS Lett., 2002; 528: 217-221). Therefore, by using ARPE-19 cells, the protective effect of Ebselen on HNE-induced cell damage was evaluated. In addition, the effects of quercetin and edaravone which are compounds generally known to have an antioxidative activity were also evaluated at the same time, and comparison study was performed.
as §1, with “at” for “at 6.25 μM or”, “HNE (100” for “hydrogen peroxide (250”
as §2

[3] = test system: ischemia-induced neovascularization in hindlimb tissues; settings: hindlimb tissues of mice; cited from earlier work
[4] = test system: carotid artery remodeling and neovascularization; settings: p22phox transgenic mice; cited from earlier work
renal neovascularization = settings: ZDF rats, repeated administration; cited from earlier work

Row | Compound | Inhibition rate (%) ([1]; each dose: 5 mg/kg) | Inhibition rate (%) ([1]; each dose: 15 mg/kg) | Effect on choroidal neovascularization (in words) ([1]; rat models of laser-induced choroidal neovascularization, 5 or 15 mg/kg BID oral) | Cell protective effect on hydrogen peroxide-induced cell damage (in words) [2] | Cell protective effect on HNE-induced cell damage (in words) (ARPE-19 cells) | Effect on ischemia-induced neovascularization (in words) [3] | Effect on carotid artery remodeling and neovascularization (in words) [4] | Effect on renal neovascularization (in words) (renal neovascularization) | viability at 6.25 µM ([2]; Homo sapiens, ARPE-19, compound 6.25 μM, 24 h pretreatment, then hydrogen peroxide 250 μM 24 h, untreated cells = 100%, mean ± standard error) [%] | viability at 12.5 µM ([2]; Homo sapiens, ARPE-19, compound 12.5 μM, 24 h pretreatment, then hydrogen peroxide 250 μM 24 h, untreated cells = 100%, mean ± standard error) [%] | viability at 12.5 µM (ARPE-19 cells; Homo sapiens, ARPE-19, compound 12.5 μM, 24 h pretreatment, then HNE 100 μM 24 h, untreated cells = 100%, mean ± standard error) [%]
1 | O=c1c2ccccc2[se]n1-c1ccccc1 [Ebselen, 2-phenyl-1,2-benzisoselenazol-3(2H)-one] | 26.9 | 28.9 | inhibits choroidal neovascularization | strongly protected the cells against hydrogen peroxide-induced cell damage in a concentration-dependent manner | strongly protected the cells against HNE-induced cell damage | inhibited ischemia-induced neovascularization | inhibited endogenous hydrogen peroxide-induced carotid artery remodeling and neovascularization | renal neovascularization was restored |  |  | 
2 | O=c1c(O)c(-c2ccc(O)c(O)c2)oc2cc(O)cc(O)c12 [Quercetin, quercetin] |  |  |  | not found to have a cell protective effect at either concentration | not found to have a cell protective effect |  |  |  | 8 ± 0.1 | 3.8 ± 0.4 | 28.6 ± 0.9
3 | CC1=NN(c2ccccc2)C(=O)C1 [Edaravone, edaravone] |  |  |  | not found to have a cell protective effect at either concentration | not found to have a cell protective effect |  |  |  |  |  | 
